The values that follow come from US9925192B2, “Method for treating cancer” (Merck Sharp & Dohme Corp., priority 2014, dated 2018).

As a reminder, the viability is a read-out of living cells in per cent, often relative to untreated cells.

Experiment [1] deals with H128 SCLC cells. The experiment can be described thus: In vitro cell viability (Cell Titer Glo), 8 hours of compound treatment. Type of experiment: cell-based. The following applies: Homo sapiens, read-out: % Viability Remaining (8 hr), mean. As for the experimental part: (§1) All cell lines were grown in exponential growth phase.
In general terms: In ATP-based viability assays light output follows the ATP content of the culture.

Experiment [2] deals with H146 SCLC cells. The experiment is described as above. As to conditions: Homo sapiens, read-out: % Viability Remaining (8 hr), mean. In kind it is cell-based. How it is done: as §1
For experiment [3], the system named is H82 SCLC cells. Described as above. Type of experiment: cell-based. As to conditions: Homo sapiens, read-out: % Viability Remaining (8 hr), mean. As for the experimental part: as §1
Experiment [4] has as its system Su-DHL-4 DLBCL cells. The description is as above. Type of experiment: cell-based. As to conditions: Homo sapiens, read-out: % Viability Remaining (8 hr), mean. How it is done: as §1
In experiment [5] the test system is Su-DHL-8 DLBCL cells. The experiment is described as above. Type of experiment: cell-based. The following applies: Homo sapiens, read-out: % Viability Remaining (8 hr), mean. How it is done:
as §1

Experiment [6] relates to NCI-H82 human Small Cell Lung Cancer (SCLC) xenograft. The experiment can be described thus: NCI-H82 human Small Cell Lung Cancer xenograft model. In kind it is in vivo, mouse. As to conditions: dinaciclib 40 mg/kg ip q4d, ABT-199 100 mg/kg po qd. As for the experimental part: (§2) The cells were cultured in tissue culture flasks in a humidified incubator at 37° C., in an atmosphere of 5% CO2 and 95% air.
(§3) Body weight was measured at least twice weekly.

The test system of experiment [7] is SUDHL4 human Diffuse Large B-Cell Lymphoma (DLBCL) xenograft. In kind it is in vivo. The following applies: dinaciclib 40 mg/kg ip q4d, ABT-199 100 mg/kg po qd, dosing for eleven days, combination measured on day 18. How it is done: as §2, §3
Experiment [8] relates to TOLEDO human Diffuse Large B-Cell Lymphoma (DLBCL) xenograft. Briefly: Toledo human DLBCL xenograft model. As to conditions: dinaciclib 40 mg/kg ip q4d, ABT-199 100 mg/kg po qd, alone or combined. In general terms: Xenograft models place foreign cells or tissue in a host animal.
Experimental: Eight week old female SCID beige mice (Fox Chase SCID® Beige) with body weights ranging from 18.0 to 22 grams were used for this study. Toledo tumor cells were grown to mid-log phase in RPMI-1640 medium containing 10% fetal bovine serum, 100 units/mL penicillin G, 100 μg/mL streptomycin sulfate, and 10 mM sodium pyruvate. The cells were cultured in tissue culture flasks in a humidified incubator at 37° C., in an atmosphere of 5% CO2 and 95% air. Mice were implanted subcutaneously in the right flank with 5×10e^6 tumor cells in 50% matrigel in a total volume of 0.1 ml. Twenty-eight days after inoculation, mice were randomized into groups when tumors reached an average tumor volume of ˜160 mm^3.
Dinaciclib, formulated in 20% hydroxypropyl beta-cyclodextrin (HPBCD), was dosed at 40 mg/kg intraperitoneal (ip) every four days (q4d). […] Both test agents were administered at 10 ml/kg.
Tumor volume (TV) was measured twice a week using calipers. Tumor volume was calculated by the elliptical formula: Tumor Volume=width2×length/2. Body weight was measured at least twice weekly. […] Statistical Analysis of Tumor Growth Inhibition (TGI) was analyzed by one-way ANOVA followed by Tukey's multiple comparison test.

Take `CCc1cnn2c(NCc3ccc[n+]([O-])c3)cc(N3CCCC[C@H]3CCO)nc12` [dinaciclib, (S)-(−)-2-(1-{3-ethyl-7-[(1-oxy-pyridin-3-ylmethyl)amino]pyrazolo[1,5-a]pyrimidin-5-yl}piperidin-2-yl)ethanol]: the viability at 0.1 µM in experiment [1] (NCI-H128, H128 SCLC, dinaciclib 0.1 uM, 8 hr) was 114%; in experiment [2] (NCI-H146, H146 SCLC, dinaciclib 0.1 uM, 8 hr), 118%; in experiment [3] (H82 SCLC, dinaciclib 0.1 uM, 8 hr), 64.7%; in experiment [4] (Su-DHL-4 DLBCL, dinaciclib 0.1 uM, 8 hr), 53.5%; in experiment [5] (Su-DHL-8 DLBCL, dinaciclib 0.1 uM, 8 hr) it was 126%.

For `CC1(C)CCC(CN2CCN(c3ccc(C(=O)NS(=O)(=O)c4ccc(NCC5CCOCC5)c([N+](=O)[O-])c4)c(Oc4cnc5[nH]ccc5c4)c3)CC2)=C(c2ccc(Cl)cc2)C1` [ABT-199, 4-(4-{[2-(4-chlorophenyl)-4,4-dimethylcyclohex-1-en-1-yl]methyl}piperazin-1-yl)-N-({3-nitro-4-[(tetrahydro-2H-pyran-4-ylmethyl)amino]phenyl}sulfonyl)-2-(1H-pyrrolo[2,3-b]pyridin-5-yloxy)benzamide], the viability at 1 µM in experiment [1] (NCI-H128, 8 h) stood at 95.4%; in experiment [2] (NCI-H146, 8 h) it was 92.6%; in experiment [3] (8 h), 111%; in experiment [4] (SU-DHL-4, 8 h), 85.4%; in experiment [5] (SU-DHL-8, 8 h), 99.4%. Moreover, in experiment [6], the “Effect on tumor growth (single agents)” value was “no effect on tumor growth”. The “Anti-tumor effect (tumor volume)” value in experiment [7] is on record as “single agent activity”; in experiment [8], “provided anti-tumor effects”.
